{"source": "PubChem BioAssay AID1996", "data": [{"details": "buffer; pH 7.4; 200.0 µM", "units": {"solubility kinetic": "µg/mL"}, "values": [{"compound": "COc1ccccc1/C=C(\\NC(=O)c1ccccc1)C(=O)NCc1ccco1", "solubility kinetic": 7}, {"compound": "CCOC(=O)CSc1nc2cccnc2n1C", "solubility kinetic": "> 37.7"}, {"compound": "CCC1(C)Cc2ccccc2-c2nc(NCCCO)n(C)c(=O)c21", "note": "(stereo not given)", "solubility kinetic": "> 49.1"}, {"compound": "Cc1[nH]c2ccc(Br)cc2c(=S)c1C/C=C/Cl", "solubility kinetic": 5.3}, {"compound": "Nc1nc2c(ncn2C2C[C@H](O)[C@@H](CO)O2)c(=O)[nH]1", "note": "(stereo not given in full)", "solubility kinetic": "> 40.1"}, {"compound": "O=C(Nc1nccs1)C1(c2ccc(Cl)cc2)CC1", "solubility kinetic": 14.2}, {"compound": "Cc1cc(C)c(-c2nc3ccccc3s2)[nH]1", "solubility kinetic": 0.8}, {"compound": "CCn1cnc2cc(NC(=O)c3ccc(C)cc3)ccc21", "solubility kinetic": "> 41.9"}, {"compound": "CCOC(=O)Cn1c(C)cc(COC)c(C#N)c1=O", "solubility kinetic": "> 39.6"}, {"compound": "Cn1ncc(Cl)c1C(=O)N1CCN(c2ccccc2)CC1", "solubility kinetic": "> 45.7"}, {"compound": "Cc1ccc(OCC(=O)Nc2ccc3oc(=O)ccc3c2)cc1C", "solubility kinetic": "< 0.7"}, {"compound": "COc1ccccc1CCNC(=O)c1ccc2nc[nH]c2c1", "solubility kinetic": "> 44.3"}, {"compound": "Cc1noc(C)c1C(=O)OCC(=O)Nc1ccc(C(N)=O)cc1", "solubility kinetic": 42.2}, {"compound": "CC(CC(=O)Nc1cccnc1)c1ccccc1", "note": "(stereo not given)", "solubility kinetic": "> 36"}, {"compound": "O=C(CCNC(=O)c1ccccc1Cl)Nc1ccc(S(=O)(=O)Nc2nccs2)cc1", "solubility kinetic": "> 69.7"}, {"compound": "CCc1nnc(NC(=O)CSc2nnc3nc(C)cc(C)n23)s1", "solubility kinetic": "> 52.4"}, {"compound": "COc1cc([N+](=O)[O-])ccc1NC(=O)/C=C\\C(=O)O", "solubility kinetic": "> 39.9"}, {"compound": "CCN(C(=O)CSc1nc2ccccc2c(=O)n1-c1ccccc1F)C1CCS(=O)(=O)C1", "note": "(stereo not given)", "solubility kinetic": 9.5}, {"compound": "C=CCN(C(=O)c1ccccc1)C1CCS(=O)(=O)C1", "note": "(stereo not given)", "solubility kinetic": 37.4}, {"compound": "CC(C)NC(=O)COC(=O)c1ccccc1C(=O)c1ccccc1", "solubility kinetic": "> 48.8"}, {"compound": "COc1cc(NC(=O)Cc2ccccc2)ccc1NC(=O)c1ccccc1", "solubility kinetic": "< 0.4"}, {"compound": "S=c1[nH]c2ccccc2[nH]1", "solubility kinetic": "> 22.5"}, {"compound": "NC(=O)C1CCN(C(=O)Cc2ccc(-c3ccccc3)cc2)CC1", "solubility kinetic": "> 48.4"}, {"compound": "COc1ccc(CNCCc2ccc(Cl)cc2Cl)cc1", "solubility kinetic": 2.1}, {"compound": "Oc1[nH]c(=S)sc1C=C1N=c2ccccc2=N1", "solubility kinetic": "> 39.2"}, {"compound": "CCOC(=O)Cc1csc(NC(=O)Nc2ccc(C)cc2)n1", "solubility kinetic": 3.8}, {"compound": "Cc1ccccc1NC(=S)N1CCN(c2ccccc2Cl)CC1", "solubility kinetic": 17.5}, {"compound": "O=C(CSc1ccc(Cl)cc1)NCc1ccco1", "solubility kinetic": 16.3}, {"compound": "COc1c(-c2ccc([N+](=O)[O-])cc2[N+](=O)[O-])c(=O)n(C)c(=O)n1C", "solubility kinetic": "> 50.4"}, {"compound": "Cc1onc(-c2c(F)cccc2Cl)c1C(=O)NCCN1CCNC1=O", "solubility kinetic": "> 55"}, {"compound": "Clc1ccc(N2CCN(Cc3ccco3)CC2)cc1", "solubility kinetic": 22.5}, {"compound": "Cc1ccnc(NC(=O)CCC(=O)c2cccs2)c1", "solubility kinetic": "> 41.2"}, {"compound": "COc1ccc(CNC(=O)COC(=O)c2ccc(Br)c(S(=O)(=O)N3CCOCC3)c2)cc1", "solubility kinetic": 34.2}, {"compound": "COc1cccc(NC(=O)Nc2cc(C)on2)c1", "solubility kinetic": "> 37.1"}, {"compound": "COc1ccc(C(=O)CCN2CCC(C)CC2)cc1.Cl", "solubility kinetic": "> 44.7"}, {"compound": "COc1ccc(-c2csc(Nc3cccc(C)n3)n2)cc1C", "solubility kinetic": 3.4}, {"compound": "CN(C)CCCN(Cc1ccc2c(c1)OCO2)C(=O)NC1CCCCC1", "solubility kinetic": "> 54.2"}, {"compound": "COc1ccc(N(C)C(=O)Nc2ccc3nsnc3c2)cc1", "solubility kinetic": 27.5}, {"compound": "CC1CCCN(C(=O)c2cc(-c3ccco3)nc3ccccc23)C1", "note": "(stereo not given)", "solubility kinetic": "> 48.1"}, {"compound": "Clc1ccc2oc(SCc3cccnc3)nc2c1", "solubility kinetic": 3.5}, {"compound": "CCN(c1ccccc1)S(=O)(=O)c1ccc(C(=O)N(C)Cc2cccs2)cc1", "solubility kinetic": 20.9}, {"compound": "CCC1CCc2sc(C(=O)NCc3ccccn3)cc2C1", "note": "(stereo not given)", "solubility kinetic": 36.8}, {"compound": "Cc1cc(=O)c2c([nH]1)c(C)cc1[nH]c(C)c(C)c12", "solubility kinetic": "> 36"}, {"compound": "CCOc1ccccc1NS(=O)(=O)c1ccc2oc(=O)ccc2c1", "solubility kinetic": 43.6}, {"compound": "CC1CCC(NC(=O)CNC(=O)c2cccs2)CC1", "note": "(stereo not given)", "solubility kinetic": "> 42.1"}, {"compound": "CCOc1ccccc1C(=O)NC1CCNCC1", "solubility kinetic": "> 37.2"}, {"compound": "Cc1ccnc(Nc2nc(-c3ccc(O)cc3)cs2)c1", "solubility kinetic": 3.9}, {"compound": "COc1ccc(CNC(=O)COC(=O)C(CCSC)N2C(=O)c3ccccc3C2=O)cc1", "note": "(stereo not given)", "solubility kinetic": "> 68.5"}, {"compound": "Cc1ccc(/C=C/C(=O)O)cc1S(=O)(=O)NCc1cccnc1", "solubility kinetic": 46.9}, {"compound": "COc1ccc(C(=O)Nc2ccccc2C(=O)N2CCOCC2)cc1", "solubility kinetic": "> 51.1"}, {"compound": "COCCCn1c(=O)c2sccc2n(Cc2ccccc2)c1=O", "solubility kinetic": 49.4}, {"compound": "COc1cc2c(cc1OC)C(NC(=O)C(F)(F)F)CNC2=O", "note": "(stereo not given)", "solubility kinetic": "> 47.7"}, {"compound": "CC(C)(C)c1ccc(/C=C(\\C#N)C(=O)NC2CC2)cc1", "solubility kinetic": 3.7}, {"compound": "Cc1nnc(SCC(=O)N(C)c2ccccc2)n1-n1cccc1", "solubility kinetic": "> 49.1"}, {"compound": "COc1cccc(-c2onc3ccc(C(C)=O)cc23)c1", "solubility kinetic": 2.9}, {"compound": "COCC(C)N1CC(O)=C(c2nc(-c3ccc(Cl)cc3)cs2)C1=N", "note": "(stereo not given)", "solubility kinetic": 1.3}, {"compound": "COc1ccc(-c2nc(N)c(C#N)c(-c3cccnc3)c2C)cc1", "solubility kinetic": 2.8}, {"compound": "CCCCn1c(C)c(C(=O)O)c2cc(OC)c3ccccc3c21", "solubility kinetic": 2.9}, {"compound": "Cc1ccc(NC(=O)COC(=O)Cn2cnc3c2c(=O)n(C)c(=O)n3C)cc1", "solubility kinetic": "> 57.8"}, {"compound": "O=C(CN1C(=O)c2ccccc2S1(=O)=O)NCc1ccccc1", "solubility kinetic": "> 49.6"}]}]}
